Biological target: T1, MC4 (Homo sapiens, UniProt P32245)
T1 construct: purchased Perkin Elmer BioSignal; host or cells: HEK 293
Assay: GPCR radioligand binding (RLB) assay, melanocortin MC4, [125I]NDP-αMSH
Conditions: 4.0 Micromolar; Example Library 10
Protocol: Recombinant human receptors expressed in HEK 293 cells were used for all experiments. Receptor membrane preparations were purchased from Perkin Elmer BioSignal. The labelled ligand used in somatostatin GPCR RLB assays was [^125I]SST-14 and in melanocortin assays was [^125I]NDP-αMSH. All assays were done in a 96-well plate format using either glass fiber filter mats or filter plates. All reagents purchased were of the highest quality.
Specific assay buffer, incubation and washing conditions were optimized for each receptor however they all followed the same general format. The procedures for both filter mat and filter plate formats are based on the receptor manufacturers recommendations or those described extensively in the literature. The procedures are briefly outlined below.
In assays where filter mats are used we incubate receptor membranes, assay buffer and [^125I] labelled ligand in 96 well microplates. Add compounds to incubation mixture and continue incubation for optimized period. Presoak Filter mat GF/B in 0.5% PEI for ˜2 hr at 4° C. On completion of assay mixture incubation add additional 100 μL/well of assay buffer immediately prior to filtration. Filter the assay mixture onto the GF/B filter mat using a cell harvester. Dry the filter mats prior to sealing them into a scintillation counting bag with scintillant. Radioactivity in each well is detected by liquid scintillation counting.
In assays where filter plates are used Multiscreen glass fiber filter plates (Millipore, Cat No MAFCNOB10) are precoated with 0.5% PEI for ˜2 hr at 4° C. All wells are then washed with 200 µl/well assay buffer and filtered using the Multiscreen Separation System. Subsequently receptor membranes, assay buffer and labelled ligands are added to the wells and equilibrated. Compounds for testing are then added to the mixture and incubation is continued for an optimized time. Plates are then put into the Multiscreen Separation System and the assay mixture is filtered through the plate under vacuum. Each well is then washed several times with assay buffer. Plates are then dried prior to putting sealing tape onto the bottom of the plate. Scintillant is added to each well and radioactivity measured by liquid scintillation counting.
Raw data was analysed according to standard methods using either GraphPad Prism software or IDDBS ActivityBase software.

T1 sequence (P32245 whole entry): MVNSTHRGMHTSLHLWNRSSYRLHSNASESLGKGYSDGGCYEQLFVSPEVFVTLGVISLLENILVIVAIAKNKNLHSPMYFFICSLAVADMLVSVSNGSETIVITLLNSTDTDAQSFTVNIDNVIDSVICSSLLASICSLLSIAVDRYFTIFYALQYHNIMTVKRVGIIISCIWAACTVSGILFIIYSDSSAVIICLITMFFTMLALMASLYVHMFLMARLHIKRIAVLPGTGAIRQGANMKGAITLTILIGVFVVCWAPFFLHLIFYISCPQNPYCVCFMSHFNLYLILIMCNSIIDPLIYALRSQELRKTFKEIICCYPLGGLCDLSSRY

| Structure (SMILES) | MC4 Inhibition at 4.0 Micromolar |
| --- | --- |
| NCC(=O)N[C@H]1C(OCc2ccc3ccccc3c2)O[C@H](COCc2ccc3ccccc3c2)[C@@H](O)[C@@H]1OCc1ccc(Cl)cc1 (some centres unmarked) [Compound 350] | + (Indicates inhibition greater than . . . 50%) |
| NCC(=O)N[C@H]1C(OCc2ccc3ccccc3c2)O[C@H](COCc2ccc3ccccc3c2)[C@@H](O)[C@@H]1OCc1ccc(Cl)cc1 (some centres unmarked) [Compound 351] | + (Indicates inhibition greater than . . . 50%) |
| NCCC(=O)N[C@H]1C(OCc2ccc3ccccc3c2)O[C@H](COCc2ccccc2)[C@@H](O)[C@@H]1OCc1ccc(Cl)cc1 (some centres unmarked) [Compound 352] | + (Indicates inhibition greater than . . . 50%) |
| NCCC(=O)N[C@H]1C(OCc2ccc3ccccc3c2)O[C@H](COCc2ccccc2)[C@@H](O)[C@@H]1OCc1ccc(Cl)cc1 (some centres unmarked) [Compound 353] | + (Indicates inhibition greater than . . . 50%) |
| NCCC(=O)N[C@H]1C(OCc2ccc3ccccc3c2)O[C@H](COCc2ccc(Cl)cc2)[C@@H](O)[C@@H]1OCc1ccc(Cl)cc1 (some centres unmarked) [Compound 354] | + (Indicates inhibition greater than . . . 50%) |
| NCCC(=O)N[C@H]1C(OCc2ccc3ccccc3c2)O[C@H](COCc2ccc(Cl)cc2)[C@@H](O)[C@@H]1OCc1ccc(Cl)cc1 (some centres unmarked) [Compound 355] | + (Indicates inhibition greater than . . . 50%) |
| NCC(=O)N[C@H]1C(OCc2ccc3ccccc3c2)O[C@H](COCc2ccc3ccccc3c2)[C@@H](O)[C@@H]1OCc1ccc2ccccc2c1 (some centres unmarked) [Compound 356] | + (Indicates inhibition greater than . . . 50%) |
| NCCC(=O)N[C@H]1C(OCc2ccc3ccccc3c2)O[C@H](COCc2ccc3ccccc3c2)[C@@H](O)[C@@H]1OCc1ccc2ccccc2c1 (some centres unmarked) [Compound 357] | + (Indicates inhibition greater than . . . 50%) |
| NCCC(=O)N[C@H]1C(OCc2ccc3ccccc3c2)O[C@H](COCc2ccccc2)[C@@H](O)[C@@H]1OCc1ccc2ccccc2c1 (some centres unmarked) [Compound 358] | + (Indicates inhibition greater than . . . 50%) |
| NCCC(=O)N[C@H]1C(OCc2ccc3ccccc3c2)O[C@H](COCc2ccc(Cl)cc2)[C@@H](O)[C@@H]1OCc1ccc2ccccc2c1 (some centres unmarked) [Compound 359] | + (Indicates inhibition greater than . . . 50%) |
| NCCC(=O)N[C@H]1C(OCc2ccc3ccccc3c2)O[C@H](COCc2ccc(Cl)cc2)[C@@H](O)[C@@H]1OCc1ccc2ccccc2c1 (some centres unmarked) [Compound 360] | + (Indicates inhibition greater than . . . 50%) |
| NCCC(=O)N[C@H]1C(OCc2ccc3ccccc3c2)O[C@H](COCc2ccc3ccccc3c2)[C@@H](O)[C@@H]1OCc1ccccc1 (some centres unmarked) [Compound 361] | + (Indicates inhibition greater than . . . 50%) |
| NCC(=O)N[C@H]1C(OCc2ccc3ccccc3c2)O[C@H](COCc2ccc(Cl)cc2)[C@@H](O)[C@@H]1OCc1ccccc1 (some centres unmarked) [Compound 364] | + (Indicates inhibition greater than . . . 50%) |
| NCCCC(=O)N[C@H]1C(OCc2ccc3ccccc3c2)O[C@H](COCc2ccc3ccccc3c2)[C@@H](O)[C@@H]1OCc1ccc2ccccc2c1 (some centres unmarked) [Compound 369] | + (Indicates inhibition greater than . . . 50%) |
| NCCCC(=O)N[C@H]1C(OCc2ccc3ccccc3c2)O[C@H](COCc2ccccc2)[C@@H](O)[C@@H]1OCc1ccccc1 (some centres unmarked) [Compound 374] | + (Indicates inhibition greater than . . . 50%) |
| NCCCC(=O)N[C@H]1C(OCc2ccc3ccccc3c2)O[C@H](COCc2ccc(Cl)cc2)[C@@H](O)[C@@H]1OCc1ccccc1 (some centres unmarked) [Compound 375] | + (Indicates inhibition greater than . . . 50%) |

| Structure (SMILES) | MC4 Inhibition at 4.0 Micromolar |
| --- | --- |
| NCCC(=O)N[C@H]1C(OCc2ccc(Cl)cc2)O[C@H](COCc2ccccc2)[C@@H](O)[C@@H]1OCc1ccc(Cl)cc1 (some centres unmarked) [Compound 376] | + (Indicates inhibition greater than . . . 50%) |
| NCCC(=O)N[C@H]1C(OCc2ccc(Cl)cc2)O[C@H](COCc2ccc(Cl)cc2)[C@@H](O)[C@@H]1OCc1ccc(Cl)cc1 (some centres unmarked) [Compound 377] | + (Indicates inhibition greater than . . . 50%) |
| NCCC(=O)N[C@H]1C(OCc2ccc(Cl)cc2)O[C@H](COCc2ccc3ccccc3c2)[C@@H](O)[C@@H]1OCc1ccc2ccccc2c1 (some centres unmarked) [Compound 378] | + (Indicates inhibition greater than . . . 50%) |
| NCCC(=O)N[C@H]1C(OCc2ccc(Cl)cc2)O[C@H](COCc2ccccc2)[C@@H](O)[C@@H]1OCc1ccc2ccccc2c1 (some centres unmarked) [Compound 379] | + (Indicates inhibition greater than . . . 50%) |
| NCC(=O)N[C@H]1C(OCc2ccc(Cl)cc2)O[C@H](COCc2ccccc2)[C@@H](O)[C@@H]1OCc1ccc2ccccc2c1 (some centres unmarked) [Compound 380] | + (Indicates inhibition greater than . . . 50%) |
| NCCC(=O)N[C@H]1C(OCc2ccc(Cl)cc2)O[C@H](COCc2ccc(Cl)cc2)[C@@H](O)[C@@H]1OCc1ccc2ccccc2c1 (some centres unmarked) [Compound 381] | + (Indicates inhibition greater than . . . 50%) |
| NCC(=O)N[C@H]1C(OCc2ccc(Cl)cc2)O[C@H](COCc2ccc(Cl)cc2)[C@@H](O)[C@@H]1OCc1ccc2ccccc2c1 (some centres unmarked) [Compound 382] | + (Indicates inhibition greater than . . . 50%) |
| NCCC(=O)N[C@H]1C(OCc2ccc(Cl)cc2)O[C@H](COCc2ccc3ccccc3c2)[C@@H](O)[C@@H]1OCc1ccccc1 (some centres unmarked) [Compound 383] | + (Indicates inhibition greater than . . . 50%) |
| NCC(=O)N[C@H]1C(OCc2ccc(Cl)cc2)O[C@H](COCc2ccccc2)[C@@H](O)[C@@H]1OCc1ccccc1 (some centres unmarked) [Compound 384] | + (Indicates inhibition greater than . . . 50%) |
| NCCC(=O)N[C@H]1C(OCc2ccc(Cl)cc2)O[C@H](COCc2ccc(Cl)cc2)[C@@H](O)[C@@H]1OCc1ccccc1 (some centres unmarked) [Compound 385] | + (Indicates inhibition greater than . . . 50%) |
| NCCCC(=O)N[C@H]1C(OCc2ccc(Cl)cc2)O[C@H](COCc2ccc3ccccc3c2)[C@@H](O)[C@@H]1OCc1ccc(Cl)cc1 (some centres unmarked) [Compound 386] | + (Indicates inhibition greater than . . . 50%) |
| NCCCC(=O)N[C@H]1C(OCc2ccc(Cl)cc2)O[C@H](COCc2ccccc2)[C@@H](O)[C@@H]1OCc1ccc(Cl)cc1 (some centres unmarked) [Compound 387] | + (Indicates inhibition greater than . . . 50%) |
| NCCCC(=O)N[C@H]1C(OCc2ccc(Cl)cc2)O[C@H](COCc2ccc(Cl)cc2)[C@@H](O)[C@@H]1OCc1ccc(Cl)cc1 (some centres unmarked) [Compound 388] | + (Indicates inhibition greater than . . . 50%) |
| NCCCC(=O)N[C@H]1C(OCc2ccc(Cl)cc2)O[C@H](COCc2ccc3ccccc3c2)[C@@H](O)[C@@H]1OCc1ccccc1 (some centres unmarked) [Compound 395] | + (Indicates inhibition greater than . . . 50%) |
| NCCCC(=O)N[C@H]1C(OCc2ccc(Cl)cc2)O[C@H](COCc2ccc(Cl)cc2)[C@@H](O)[C@@H]1OCc1ccccc1 (some centres unmarked) [Compound 396] | + (Indicates inhibition greater than . . . 50%) |

Same assay, conditions: 4.0 Micromolar; Example Library 11

| Structure (SMILES) | MC4 Inhibition at 4.0 Micromolar |
| --- | --- |
| NCCC(=O)NC1C(OCc2ccccc2)OC(COCc2ccc3ccccc3c2)C(O)C1OCc1ccc(Cl)cc1 (centres unmarked) [Compound 397] | + (Indicates inhibition greater than . . . 50%) |
| NCCC(=O)NC1C(OCc2ccccc2)OC(COCc2ccccc2)C(O)C1OCc1ccc(Cl)cc1 (centres unmarked) [Compound 398] | + (Indicates inhibition greater than . . . 50%) |
| NCCC(=O)NC1C(OCc2ccccc2)OC(COCc2ccc(Cl)cc2)C(O)C1OCc1ccc(Cl)cc1 (centres unmarked) [Compound 399] | + (Indicates inhibition greater than . . . 50%) |
| NCCC(=O)NC1C(OCc2ccccc2)OC(COCc2ccc3ccccc3c2)C(O)C1OCc1ccc2ccccc2c1 (centres unmarked) [Compound 400] | + (Indicates inhibition greater than . . . 50%) |
| NCCC(=O)NC1C(OCc2ccccc2)OC(COCc2ccccc2)C(O)C1OCc1ccc2ccccc2c1 (centres unmarked) [Compound 401] | + (Indicates inhibition greater than . . . 50%) |
| NCCC(=O)NC1C(OCc2ccccc2)OC(COCc2ccc(Cl)cc2)C(O)C1OCc1ccc2ccccc2c1 (centres unmarked) [Compound 402] | + (Indicates inhibition greater than . . . 50%) |
| NCCC(=O)NC1C(OCc2ccccc2)OC(COCc2ccc3ccccc3c2)C(O)C1OCc1ccccc1 (centres unmarked) [Compound 403] | + (Indicates inhibition greater than . . . 50%) |
| NCCC(=O)NC1C(OCc2ccccc2)OC(COCc2ccccc2)C(O)C1OCc1ccccc1 (centres unmarked) [Compound 404] | + (Indicates inhibition greater than . . . 50%) |
| NCCC(=O)NC1C(OCc2ccccc2)OC(COCc2ccc(Cl)cc2)C(O)C1OCc1ccccc1 (centres unmarked) [Compound 405] | + (Indicates inhibition greater than . . . 50%) |

Same assay, conditions: 4.0 micromolar compound

| Structure (SMILES) | MC4 Inhibition at 4.0 Micromolar |
| --- | --- |
| COC1C(O)C(COCc2ccc3ccccc3c2)OC(OCc2ccc(Cl)cc2)C1NC(=O)CNC(=N)N (centres unmarked) [Compound 349] | + (Indicates inhibition greater than . . . 50%) |
